The assay relates to Carcinus maenas Hiat1 (CmHiat1). The note with it: 0.5-20 mM NH4Cl in OR2 bath; room temperature; net flux of whole oocyte, not sham-subtracted (endogenous NH4+ uptake present).

As a reminder, the Km is the concentration of substrate that gives half-maximal velocity. For the compound `N` [NH4^+], the Km turned out to be 2300 µM.
